Laboratory results published in article PMC5716991, “The anthelmintic praziquantel is a human serotoninergic G-protein-coupled receptor ligand” (Nature Communications, 2017).

Biological target: T1, 5-HT2B receptor (Homo sapiens, UniProt P41595)
T1 construct: gene HTR2B
Assay: [3H]-LSD radioligand displacement at […] (PDSP primary screen); partial agonist in Ca2+ flux
Assay type: binding

T1 sequence (P41595 whole entry): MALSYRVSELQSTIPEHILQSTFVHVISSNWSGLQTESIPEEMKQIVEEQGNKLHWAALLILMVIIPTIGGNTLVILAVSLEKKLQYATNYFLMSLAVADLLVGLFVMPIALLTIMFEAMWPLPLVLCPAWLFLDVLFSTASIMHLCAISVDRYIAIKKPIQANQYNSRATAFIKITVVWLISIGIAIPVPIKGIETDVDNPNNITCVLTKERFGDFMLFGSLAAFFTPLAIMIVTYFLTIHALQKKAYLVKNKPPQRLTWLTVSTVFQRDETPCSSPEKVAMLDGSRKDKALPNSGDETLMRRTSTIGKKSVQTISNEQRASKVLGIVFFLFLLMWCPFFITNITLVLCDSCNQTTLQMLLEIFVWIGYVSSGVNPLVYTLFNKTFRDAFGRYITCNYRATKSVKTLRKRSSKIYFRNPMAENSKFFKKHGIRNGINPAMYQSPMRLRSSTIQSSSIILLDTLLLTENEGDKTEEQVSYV

O=C(C1CCCCC1)N1CC(=O)N2CCc3ccccc3[C@@H]2C1 [(R)-PZQ]
[3H]-LSD radioligand displacement at 5 μM (PDSP primary screen); partial agonist: the human 5-HT2B receptor (5-HT2BR)—where inhibition seen with (±)-PZQ was attributable solely to (R)-PZQ
